This note sets out measurements from ChEMBL document CHEMBL1201862, “PubChem BioAssay data set” (2004).

Molecules are shown by their SMILES.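 These data come from cells grown in 96-well plates and exposed to compound for 48 hours at five concentrations. At the GI50, growth is halved.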 Active and inactive are the calls of the source. No stated cut-off is given here; in the data, active = GI50 up to about 1.1 µM and inactive = higher.

Some test systems named below: SK-MEL-28; NCI-H226; CAKI-1; OVCAR-5; NCI-H522; SR; SNB-75; OVCAR-8; HCT-15; OVCAR-3; Hs-578T; MDA-MB-231; TK-10; 786-0; NCI-H460; BT-549; NCI/ADR-RES; U-251; CCRF-CEM; HCC 2998.
Assay in all cases: inhibition of tumour cell growth, NCI panel, 48 h

`CN(Cc1cc(Cl)cc(Cl)c1O)Cc1c(O)ccc2ccccc12`: the GI50 with SK-MEL-28 is 19.1 µM (inactive); with NCI-H226 it was 20.6 µM (inactive); in the assay on CAKI-1 it was 18.3 µM (inactive); in the assay on OVCAR-5, 23.1 µM (inactive); in the assay with NCI-H522 it was 15 µM (inactive); in the assay with SR it was 23.8 µM (inactive). For the same molecule, the GI50 in the assay with SNB-75 is 16.7 µM (inactive); in the assay with OVCAR-8, 19.5 µM (inactive); in the assay on HCT-15, 17.6 µM; in the assay with OVCAR-3, 16.6 µM (inactive); with Hs-578T it was 19.1 µM (inactive); with MDA-MB-231, 16.9 µM (inactive). Also, the GI50 with TK-10 is 17.1 µM (inactive); in the assay with 786-0, 21 µM (inactive); in the assay with NCI-H460 it was 18.4 µM (inactive); with BT-549, 17 µM (inactive); in the assay with NCI/ADR-RES, 20.6 µM (inactive); with U-251, 16.3 µM (inactive).

`c1ccc2c(c1)nnn2CN1CCOCC1`: the GI50 in the assay on SK-MEL-28 is > 100 µM (inactive); in the assay on NCI-H226 it was > 100 µM (inactive); in the assay on CAKI-1, 75.7 µM (inactive); with OVCAR-5, > 100 µM (inactive); in the assay with NCI-H522, > 100 µM (inactive); in the assay on SR, 25 µM (inactive). For the same molecule, the GI50 is 36.3 µM (inactive) with OVCAR-8; over 100 µM with HCT-15; 28.9 µM (inactive) with OVCAR-3; 19.2 µM (inactive) in the assay with Hs-578T; > 100 µM (inactive) in the assay on MDA-MB-231; > 100 µM (inactive) in the assay on TK-10. The GI50 in the assay on 786-0 was > 100 µM (inactive); with NCI-H460, 46.3 µM (inactive); in the assay on BT-549, > 100 µM (inactive); in the assay on NCI/ADR-RES, > 100 µM (inactive); with U-251 it was > 100 µM (inactive).

Turning to `CC(=O)Nc1ccc2nc(N)n[n+]([O-])c2c1`, the GI50 with SK-MEL-28, in the assay on NCI-H226, in the assay on CAKI-1, in the assay with OVCAR-5, in the assay on NCI-H522 and in the assay with SR was > 100 µM (inactive) throughout. The GI50 in the assay with SNB-75 is 41.4 µM (inactive); with OVCAR-8, > 100 µM (inactive); in the assay with HCT-15, over 100 µM; in the assay on OVCAR-3, > 100 µM (inactive); in the assay on Hs-578T, 92.3 µM (inactive); in the assay with MDA-MB-231, > 100 µM (inactive). Further, the GI50 in the assay with TK-10 was 77.8 µM (inactive); with 786-0 it was > 100 µM (inactive); in the assay on CCRF-CEM, > 100 µM (inactive); with NCI-H460, > 100 µM (inactive); with BT-549, > 100 µM (inactive); in the assay on NCI/ADR-RES, > 100 µM (inactive). For the same molecule, the GI50 in the assay on U-251 was > 100 µM (inactive).

With `CC1(C)CC(=O)C2=C(C1)NC(=S)C(C#N)C2c1ccccc1` (centres undefined), the GI50 in the assay with SK-MEL-28, in the assay with NCI-H226, in the assay on CAKI-1, in the assay with OVCAR-5, in the assay with NCI-H522 and in the assay with SNB-75 was > 100 µM (inactive) throughout. In addition, the GI50 in the assay with OVCAR-8 is > 100 µM (inactive); in the assay on HCT-15 it was over 100 µM; in the assay with OVCAR-3, > 100 µM (inactive); in the assay with Hs-578T, > 100 µM (inactive); in the assay on MDA-MB-231, > 100 µM (inactive); in the assay with TK-10, > 100 µM (inactive). Besides, the GI50 in the assay with HCC 2998, with 786-0, with CCRF-CEM, in the assay on NCI-H460, in the assay on BT-549 and in the assay on NCI/ADR-RES was > 100 µM (inactive) each time. Further, in the assay with U-251, the GI50 is > 100 µM (inactive).

In the case of `Nc1ncnc2c1ncn2Cc1cccc(CCl)c1`, the GI50 is 19.8 µM (inactive) in the assay on SK-MEL-28; 16 µM (inactive) with NCI-H226; 18.8 µM (inactive) in the assay with CAKI-1; 14.5 µM (inactive) in the assay on OVCAR-5; 15.1 µM (inactive) with NCI-H522; 6.43 µM (inactive) in the assay on SR. For the same molecule, the GI50 in the assay on SNB-75 is 30.1 µM (inactive); in the assay with OVCAR-8, 16.1 µM (inactive); in the assay with HCT-15 it was 17.9 µM; in the assay on OVCAR-3, 14.1 µM (inactive); with Hs-578T, 22.8 µM (inactive); in the assay on MDA-MB-231 it was 16.6 µM (inactive). The GI50 is 17 µM (inactive) in the assay with TK-10; 14.4 µM (inactive) in the assay with 786-0; 14.2 µM (inactive) in the assay on NCI-H460; 12.8 µM (inactive) in the assay on BT-549; 18.5 µM (inactive) with NCI/ADR-RES; 13.8 µM (inactive) with U-251.

Take `CCCCn1c(C)c2c(c1C)C(=O)N(CC(O)CN1CCc3ccccc3C1)C2=O` (centres undefined): the GI50 is > 100 µM (inactive) in the assay with SK-MEL-28; 68.7 µM (inactive) in the assay on NCI-H226; 80.2 µM (inactive) with CAKI-1; > 100 µM (inactive) in the assay with OVCAR-5; > 100 µM (inactive) in the assay on NCI-H522; > 100 µM (inactive) in the assay on SNB-75. Also, the GI50 in the assay on OVCAR-8 was > 100 µM (inactive); with HCT-15, over 100 µM; in the assay on OVCAR-3, 67.8 µM (inactive); with Hs-578T, > 100 µM (inactive); with MDA-MB-231, > 100 µM (inactive); in the assay with TK-10, 67.3 µM (inactive). Also, the GI50 in the assay with HCC 2998 was 39.8 µM (inactive); in the assay on 786-0 it was 45.8 µM (inactive); in the assay on CCRF-CEM, 69.8 µM (inactive); with NCI-H460 it was 86.7 µM (inactive); with BT-549, > 100 µM (inactive); in the assay on NCI/ADR-RES it was 59.7 µM (inactive). For the same molecule, the GI50 in the assay on U-251 is 81.5 µM (inactive).

Turning to `CC(=O)OC(Cn1cncn1)(Cn1cncn1)c1ccc(Cl)cc1Cl`, the GI50 with SK-MEL-28, in the assay with NCI-H226, in the assay with CAKI-1, in the assay on OVCAR-5, in the assay on NCI-H522 and in the assay on SNB-75 was > 100 µM (inactive) each time. Also, the GI50 in the assay on OVCAR-8 was > 100 µM (inactive); with HCT-15, over 100 µM; with OVCAR-3, > 100 µM (inactive); in the assay with Hs-578T it was > 100 µM (inactive); in the assay with MDA-MB-231, > 100 µM (inactive); in the assay with TK-10 it was > 100 µM (inactive). In addition, the GI50 in the assay on HCC 2998, with 786-0, in the assay on CCRF-CEM, with NCI-H460, with BT-549 and in the assay with NCI/ADR-RES was > 100 µM (inactive) each time. Further, the GI50 with U-251 was > 100 µM (inactive).

In the case of `CCC/C=C/C=C/C1CC(O)C(O)C(=O)C1CO` (centres undefined), the GI50 with SK-MEL-28 is > 100 µM (inactive); in the assay with NCI-H226, > 100 µM (inactive); in the assay with CAKI-1 it was > 100 µM (inactive); in the assay on OVCAR-5 it was > 100 µM (inactive); in the assay with NCI-H522, 55.2 µM (inactive); in the assay with SNB-75, > 100 µM (inactive). Further, the GI50 is > 100 µM (inactive) with OVCAR-8; over 100 µM in the assay on HCT-15; 21.6 µM (inactive) in the assay on OVCAR-3; > 100 µM (inactive) in the assay on Hs-578T; > 100 µM (inactive) with MDA-MB-231; > 100 µM (inactive) with TK-10. The GI50 with HCC 2998, in the assay with 786-0, with CCRF-CEM, with NCI-H460, with BT-549 and in the assay on NCI/ADR-RES was > 100 µM (inactive) throughout. In addition, the GI50 with U-251 was > 100 µM (inactive).

For `O=C(c1cccnc1)N1N=C(c2ccc3c(c2)OCO3)CC1(O)c1cc(F)c(Cl)cc1Cl` (centres undefined), the GI50 with SK-MEL-28 was 25.5 µM (inactive); in the assay with NCI-H226, 16.2 µM (inactive); in the assay with CAKI-1, 28.6 µM (inactive); in the assay on OVCAR-5, 22.3 µM (inactive); with NCI-H522, 17 µM (inactive); with SR, 14.7 µM (inactive). Besides, the GI50 is 15.2 µM (inactive) in the assay on SNB-75; 18.8 µM (inactive) with OVCAR-8; 18 µM in the assay with HCT-15; 11 µM (inactive) in the assay with OVCAR-3; 33 µM (inactive) in the assay with Hs-578T; 17.3 µM (inactive) in the assay on MDA-MB-231. Also, the GI50 with TK-10 is 39.1 µM (inactive); with 786-0 it was 18.6 µM (inactive); in the assay with CCRF-CEM it was 19.1 µM (inactive); in the assay with NCI-H460, 17.4 µM (inactive); with BT-549, 20.9 µM (inactive); with NCI/ADR-RES it was 18.5 µM (inactive). Besides, the GI50 in the assay with U-251 is 16.7 µM (inactive).

For the molecule `CC1ON2CCCC2[C@H]1C(=O)N1C2CC3CCC2(CS1(=O)=O)C3(C)C` (some centres undefined), the GI50 in the assay on SK-MEL-28, in the assay on NCI-H226, in the assay on CAKI-1, in the assay with OVCAR-5, in the assay on NCI-H522 and with SR was > 100 µM (inactive) each time. Besides, the GI50 with SNB-75 was > 100 µM (inactive); with OVCAR-8, > 100 µM (inactive); with HCT-15 it was over 100 µM; in the assay with OVCAR-3, > 100 µM (inactive); in the assay with Hs-578T, > 100 µM (inactive); in the assay on MDA-MB-231, > 100 µM (inactive). Besides, the GI50 in the assay on TK-10, in the assay on 786-0, in the assay on CCRF-CEM, in the assay with NCI-H460, in the assay on BT-549 and in the assay on NCI/ADR-RES was > 100 µM (inactive) in each case. In addition, in the assay on U-251, the GI50 is > 100 µM (inactive).

Turning to `O=C(O)c1ccccn1` [2-PICOLINIC ACID], the GI50 in the assay with SK-MEL-28, with NCI-H226, in the assay with CAKI-1, in the assay with OVCAR-5, in the assay with SR and in the assay with SNB-75 was > 100 µM (inactive) in each case. In addition, the GI50 with OVCAR-8 is > 100 µM (inactive); in the assay with HCT-15, over 100 µM; with OVCAR-3, > 100 µM (inactive); in the assay with Hs-578T it was > 100 µM (inactive); in the assay with MDA-MB-231, > 100 µM (inactive); with TK-10, > 100 µM (inactive). For the same molecule, the GI50 in the assay with 786-0, with CCRF-CEM, with NCI-H460, in the assay on BT-549, in the assay with NCI/ADR-RES and in the assay on U-251 was > 100 µM (inactive) each time.
